ChEMBL document CHEMBL4184243, “Optimization of antimalarial, and anticancer activities of (E)-methyl 2-(7-chloroquinolin-4-ylthio)-3-(4-hydroxyphenyl) acrylate” (Bioorg Med Chem, 2018)

Columns and labels:
[1] = Inhibition of beta-hematin formation assessed as reduction in acetate buffer-initiated hemozoin formation measured after 48 hrs; design: concentration or dose not given beside the values; conditions: concentration not given here
[2] = tested on: Lymphocyte; test: Cytotoxicity against human lymphocytes after 24 to 48 hrs by MTT assay; format: cell-based
[3] = tested on: Plasmodium berghei; test: Antimalarial activity against chloroquine-susceptible Plasmodium berghei ANKA infected in Balb-C mouse assessed as mean survival days at 10 mg/kg, ip administered once daily for 4 days (reference value: 8.4 +/- 0.15 day); format: functional
[4] = tested on: HL-60; test: Cytotoxicity against human HL60 cells after 24 hrs by MTT assay; format: functional, cell-based; conditions: HL-60, 24 h
[5] = tested on: Plasmodium berghei; test: Antimalarial activity against chloroquine-susceptible Plasmodium berghei ANKA infected in Balb-C mouse assessed as parasitemia at 10 mg/kg, ip administered once daily for 4 days measured post last dose by Giemsa staining based method (reference value: 65.8 +/- 4.38%); format: functional
[6] = tested on: Jurkat E6.1; test: Cytotoxicity against human Jurkat E6-1 cells after 24 hrs by MTT assay; format: functional, cell-based; conditions: Jurkat E6.1, 24 h
[7] = Selectivity index, ratio of IC50 for human lymphocytes to IC50 for human Jurkat E6-1 cells; format: toxicity; conditions: human lymphocytes versus Jurkat E6-1 cells, read-out: Ratio IC50
[8] = tested on: HL-60; test: Induction of apoptosis in human HL60 cells assessed as late apoptotic cells at 5 uM after 24 hrs by Annexin-V-FITC/propidium iodide staining based flow cytometric analysis (reference value: 0.85 +/- 0.13 %); format: functional
[9] = tested on: HL-60; test: Induction of apoptosis in human HL60 cells assessed as early apoptotic cells at 5 uM after 24 hrs by Annexin-V-FITC/propidium iodide staining based flow cytometric analysis (reference value: 0.36 +/- 0.02 %); format: functional
[10] = tested on: HL-60; test: Induction of apoptosis in human HL60 cells assessed as necrotic cells at 5 uM after 24 hrs by Annexin-V-FITC/propidium iodide staining based flow cytometric analysis (reference value: 1.96 +/- 0.33 %); format: functional
[11] = tested on: Jurkat E6.1; test: Induction of apoptosis in human Jurkat E6-1 cells assessed as late apoptotic cells at 5 uM after 24 hrs by Annexin-V-FITC/propidium iodide staining based flow cytometric analysis (reference value: 0.73 +/- 0.14 %); format: functional
[12] = Selectivity index, ratio of IC50 for human lymphocytes to IC50 for human HL60 cells; format: toxicity; conditions: human lymphocytes versus HL60 cells, read-out: Ratio IC50
[13] = tested on: Jurkat E6.1; test: Induction of apoptosis in human Jurkat E6-1 cells assessed as necrotic cells at 5 uM after 24 hrs by Annexin-V-FITC/propidium iodide staining based flow cytometric analysis (reference value: 1.26 +/- 0.24 %); format: functional
[14] = tested on: Jurkat E6.1; test: Induction of apoptosis in human Jurkat E6-1 cells assessed as early apoptotic cells at 5 uM after 24 hrs by Annexin-V-FITC/propidium iodide staining based flow cytometric analysis (reference value: 0.5 +/- 0.07 %); format: functional
[15] = tested on: HL-60; test: Induction of apoptosis in human HL60 cells assessed as early apoptotic cells at 1 uM after 24 hrs by Annexin-V-FITC/propidium iodide staining based flow cytometric analysis (reference value: 0.36 +/- 0.02 %); format: functional
[16] = tested on: Jurkat E6.1; test: Induction of apoptosis in human Jurkat E6-1 cells assessed as late apoptotic cells at 1 uM after 24 hrs by Annexin-V-FITC/propidium iodide staining based flow cytometric analysis (reference value: 0.73 +/- 0.14 %); format: functional
[17] = tested on: Jurkat E6.1; test: Induction of apoptosis in human Jurkat E6-1 cells assessed as necrotic cells at 1 uM after 24 hrs by Annexin-V-FITC/propidium iodide staining based flow cytometric analysis (reference value: 1.26 +/- 0.24 %); format: functional
[18] = tested on: HL-60; test: Induction of apoptosis in human HL60 cells assessed as necrotic cells at 1 uM after 24 hrs by Annexin-V-FITC/propidium iodide staining based flow cytometric analysis (reference value: 1.96 +/- 0.33 %); format: functional
[19] = tested on: Jurkat E6.1; test: Induction of apoptosis in human Jurkat E6-1 cells assessed as early apoptotic cells at 1 uM after 24 hrs by Annexin-V-FITC/propidium iodide staining based flow cytometric analysis (reference value: 0.5 +/- 0.07 %); format: functional
[20] = tested on: HL-60; test: Induction of apoptosis in human HL60 cells assessed as late apoptotic cells at 1 uM after 24 hrs by Annexin-V-FITC/propidium iodide staining based flow cytometric analysis (reference value: 0.85 +/- 0.13 %); format: functional
[21] = tested on: HL-60; test: Induction of apoptosis in human HL60 cells assessed as late apoptotic cells at 50 uM after 24 hrs by Annexin-V-FITC/propidium iodide staining based flow cytometric analysis (reference value: 0.85 +/- 0.13 %); format: functional
[22] = tested on: HL-60; test: Induction of apoptosis in human HL60 cells assessed as necrotic cells at 50 uM after 24 hrs by Annexin-V-FITC/propidium iodide staining based flow cytometric analysis (reference value: 1.96 +/- 0.33 %); format: functional
[23] = tested on: Jurkat E6.1; test: Induction of apoptosis in human Jurkat E6-1 cells assessed as early apoptotic cells at 50 uM after 24 hrs by Annexin-V-FITC/propidium iodide staining based flow cytometric analysis (reference value: 0.5 +/- 0.07 %); format: functional
[24] = tested on: Jurkat E6.1; test: Induction of apoptosis in human Jurkat E6-1 cells assessed as late apoptotic cells at 50 uM after 24 hrs by Annexin-V-FITC/propidium iodide staining based flow cytometric analysis (reference value: 0.73 +/- 0.14 %); format: functional
[25] = tested on: Jurkat E6.1; test: Induction of apoptosis in human Jurkat E6-1 cells assessed as necrotic cells at 50 uM after 24 hrs by Annexin-V-FITC/propidium iodide staining based flow cytometric analysis (reference value: 1.26 +/- 0.24 %); format: functional
[26] = tested on: HL-60; test: Induction of apoptosis in human HL60 cells assessed as early apoptotic cells at 50 uM after 24 hrs by Annexin-V-FITC/propidium iodide staining based flow cytometric analysis (reference value: 0.36 +/- 0.02 %); format: functional
[27] = tested on: HL-60; test: Induction of apoptosis in human HL60 cells assessed as early apoptotic cells at 100 uM after 24 hrs by Annexin-V-FITC/propidium iodide staining based flow cytometric analysis (reference value: 0.36 +/- 0.02 %); format: functional
[28] = tested on: Jurkat; test: Cytotoxicity against human Jurkat cells after 20 hrs by propidium iodide staining based flow cytometry; format: functional, cell-based
[29] = tested on: Jurkat E6.1; test: Induction of apoptosis in human Jurkat E6-1 cells assessed as late apoptotic cells at 100 uM after 24 hrs by Annexin-V-FITC/propidium iodide staining based flow cytometric analysis (reference value: 0.73 +/- 0.14 %); format: functional
[30] = tested on: HL-60; test: Induction of apoptosis in human HL60 cells assessed as necrotic cells at 100 uM after 24 hrs by Annexin-V-FITC/propidium iodide staining based flow cytometric analysis (reference value: 1.96 +/- 0.33 %); format: functional
[31] = tested on: Jurkat E6.1; test: Induction of apoptosis in human Jurkat E6-1 cells assessed as necrotic cells at 100 uM after 24 hrs by Annexin-V-FITC/propidium iodide staining based flow cytometric analysis (reference value: 1.26 +/- 0.24 %); format: functional
[32] = tested on: Jurkat E6.1; test: Induction of apoptosis in human Jurkat E6-1 cells assessed as early apoptotic cells at 100 uM after 24 hrs by Annexin-V-FITC/propidium iodide staining based flow cytometric analysis (reference value: 0.5 +/- 0.07 %); format: functional
[33] = tested on: HL-60; test: Induction of apoptosis in human HL60 cells assessed as late apoptotic cells at 100 uM after 24 hrs by Annexin-V-FITC/propidium iodide staining based flow cytometric analysis (reference value: 0.85 +/- 0.13 %); format: functional

| Compound | inhibition [1] | IC50 [2] | MSD [3] | IC50 [4] | Activity [5] | IC50 [6] | selectivity ratio [7] | selectivity ratio [12] | further results |
| --- | --- | --- | --- | --- | --- | --- | --- | --- | --- |
| COC(=O)/C(=C\c1ccc(OC(=O)c2cccc(OC)c2)cc1)Sc1ccnc2cc(Cl)ccc12 | 87.1% | > 100 µM | 27.16 days | 25.5 µM | 1.5% | 33.2 µM | – | – | – |
| COc1cccc2c1C(=O)c1c(O)c3c(c(O)c1C2=O)C[C@@](O)(C(=O)CO)C[C@@H]3O[C@H]1C[C@H](N)[C@H](O)[C@H](C)O1 [DOXORUBICIN] | – | 4.36 µM | – | 1.6 µM | – | 1.03 µM | – | – | Activity [15]: 1.91%; Activity [16]: 19.8%; Activity [17]: 32.6%; Activity [18]: 30.2%; Activity [19]: 0.89%; Activity [20]: 20.8% |
| COC(=O)/C(=C\c1ccc(O)cc1)Sc1ccnc2cc(Cl)ccc12 | 72.4% | 33.7 µM | 24.8 days | 4.31 µM | 1.4% | 5.18 µM | 6.51 | 7.82 | Activity [8]: 3.15%; Activity [9]: 0.74 - 0.75%; Activity [10]: 45%; Activity [11]: 2.12%; Activity [13]: 38.8%; Activity [14]: 0.45% |
| COC(=O)/C(=C\c1ccc(OC(=O)c2cc(OC)cc(OC)c2)cc1)Sc1ccnc2cc(Cl)ccc12 | 85.6% | 84.1 µM | 28.5 days | 19 µM | 1.4% | 28.9 µM | 2.92 | 4.42 | – |
| O=[As][As+](=O)[O-] (stereo unspecified) [ARSENIC TRIOXIDE] | – | 15.3 µM | – | 4.97 µM | – | 7.32 µM | 2.09 | 3.07 | – |
| O=c1c(O)c(-c2ccc(O)c(O)c2)oc2cc(O)cc(O)c12 [QUERCETIN] | – | – | – | – | – | – | – | – | Activity [21]: 3.07%; Activity [22]: 31%; Activity [23]: 0.64%; Activity [24]: 9.51%; Activity [25]: 31.9%; Activity [26]: 0.46% |
| COC(=O)/C(=C\c1ccc(OC(=O)c2ccccc2OC)cc1)Sc1ccnc2cc(Cl)ccc12 | 94.6% | > 100 µM | 28.83 days | 44.5 µM | 1.2% | 44.6 µM | – | – | – |
| COC(=O)/C(=C\c1ccc(OC(=O)c2ccccc2)cc1)Sc1ccnc2cc(Cl)ccc12 | 33.6% | > 100 µM | – | 30.2 µM | – | 35.7 µM | – | – | – |
| COC(=O)/C(=C\c1ccc(OC(=O)c2c(OC)cccc2OC)cc1)Sc1ccnc2cc(Cl)ccc12 | 92.7% | > 100 µM | 23 days | 37.2 µM | 2.6% | 37.5 µM | – | – | – |
| COC(=O)/C(=C\c1ccc(OC(=O)c2cc(OCc3ccccc3)c(OCc3ccccc3)c(OCc3ccccc3)c2)cc1)Sc1ccnc2cc(Cl)ccc12 | 23% | > 100 µM | – | > 100 µM | – | > 100 µM | – | – | – |
| CCN(CC)CCCC(C)Nc1ccnc2cc(Cl)ccc12 (stereo unspecified) [CHLOROQUINE] | 98.5% | > 100 µM | 29.98 days | > 100 µM | 0.8% | 83.6 µM | – | – | Activity [27]: 0.66%; IC50 [28]: 95 µM; Activity [29]: 7.85%; Activity [30]: 23.6%; Activity [31]: 23.7%; Activity [32]: 1.4%; Activity [33]: 2.14% |

The next lines start with results.

| inhibition [1] | Compound | IC50 [2] | MSD [3] | IC50 [4] | Activity [5] | IC50 [6] | selectivity ratio [7] | selectivity ratio [12] | further results |
| --- | --- | --- | --- | --- | --- | --- | --- | --- | --- |
| 2.48% | COC(=O)/C(=C\c1ccc(OC(=O)c2cc(OC)c(OC)c(OC)c2)cc1)Sc1ccnc2cc(Cl)ccc12 | 35.2 µM | – | 4.24 µM | – | 4.57 µM | 7.7 | 8.3 | Activity [8]: 11.3%; Activity [9]: 0.75%; Activity [10]: 45.8%; Activity [11]: 10.3%; Activity [13]: 35.6%; Activity [14]: 2.41% |
| 49.2% | COC(=O)/C(=C\c1ccc(OC(=O)c2ccc(OC)cc2OC)cc1)Sc1ccnc2cc(Cl)ccc12 | 41.6 µM | – | 7.64 µM | – | 10.2 µM | 4.09 | 5.45 | – |
| 39.6% | COC(=O)/C(=C\c1ccc(OC(=O)c2cc(OC)c(OC)cc2OC)cc1)Sc1ccnc2cc(Cl)ccc12 | 52.5 µM | – | 6.26 µM | – | 9.65 µM | 5.44 | 8.34 | Activity [8]: 4.21%; Activity [9]: 0.61%; Activity [10]: 29.5%; Activity [11]: 3.17%; Activity [13]: 21.4%; Activity [14]: 0.85% |
| 12.2% | COC(=O)/C(=C\c1ccc(OC(=O)c2ccc(OC)cc2)cc1)Sc1ccnc2cc(Cl)ccc12 | 63.5 µM | – | 9.09 µM | – | 11 µM | 5.77 | 6.99 | – |
| 12.7% | COC(=O)/C(=C\c1ccc(OC(=O)c2ccc(OC)c(OC)c2)cc1)Sc1ccnc2cc(Cl)ccc12 | 51.1 µM | – | 5.29 µM | – | 8.29 µM | 6.16 | 9.66 | Activity [8]: 2.15%; Activity [9]: 0.33%; Activity [10]: 40.2%; Activity [11]: 13.5%; Activity [13]: 21.5%; Activity [14]: 0.76% |
| 38.6% | COC(=O)/C(=C\c1ccc(OC(=O)c2cccc(OC)c2OC)cc1)Sc1ccnc2cc(Cl)ccc12 | 86.6 µM | – | 13 µM | – | 25.8 µM | 3.36 | 6.66 | – |
| 47.7% | COC(=O)/C(=C\c1ccc(OC(=O)c2cc(OC)cc(OC)c2OC)cc1)Sc1ccnc2cc(Cl)ccc12 | 74 µM | – | 10.7 µM | – | 15.6 µM | 4.74 | 6.91 | – |
